From ChEMBL document CHEMBL1130953, “Synthesis of 6-O-methyl-azithromycin and its ketolide analogue via Beckmann rearrangement of 9(E)-6-O-methyl-erythromycin oxime” (1998)
In brackets after ≈: the same amount, converted by molar mass.

How the values were obtained:
Type in all cases: functional
Escherichia coli = assay: Compound was tested for antibacterial activity against Escherichia coli 250 UC5 using standard broth microdilution assay.
Streptococcus pneumoniae [1] = assay: Compound was tested for antibacterial activity against Streptococcus pneumoniae 030SJ5i EryRi using standard broth microdilution assay.
Staphylococcus aureus = assay: Compound was tested for antibacterial activity against Staphylococcus aureus 011UC4 using standard broth microdilution assay.
Streptococcus pneumoniae [2] = assay: Compound was tested for antibacterial activity against Streptococcus pneumoniae 030SJ1 EryRc using standard broth microdilution assay.
Haemophilus influenzae = assay: Compound was tested for antibacterial activity against Haemophilus influenzae 351HT3 using standard broth microdilution assay.
Streptococcus pneumoniae [3] = assay: Compound was tested for antibacterial activity against Streptococcus pneumoniae 032UC1 using standard broth microdilution assay.
Streptococcus pyogenes = assay: Compound was tested for antibacterial activity against Streptococcus pyogenes 02A1UC1 using standard broth microdilution assay.

SMILES | MIC (Escherichia coli) | MIC (Streptococcus pneumoniae [1]) | MIC (Staphylococcus aureus) | MIC (Streptococcus pneumoniae [2]) | MIC (Haemophilus influenzae) | MIC (Streptococcus pneumoniae [3]) | MIC (Streptococcus pyogenes)
CC[C@H]1OC(=O)[C@H](C)[C@@H](O[C@H]2C[C@@](C)(OC)[C@@H](O)[C@H](C)O2)[C@H](C)[C@@H](O[C@@H]2O[C@H](C)C[C@H](N(C)C)[C@H]2O)[C@](C)(O)C[C@@H](C)CN(C)[C@H](C)[C@@H](O)[C@]1(C)O [AZITHROMYCIN] | 20 µg/mL (≈ 26.7 µM) | 40 µg/mL (≈ 53.4 µM) | 0.3 µg/mL (≈ 0.401 µM) | 40 µg/mL (≈ 53.4 µM) | 1.2 µg/mL (≈ 1.6 µM) | 0.15 µg/mL (≈ 0.2 µM) | 0.6 µg/mL (≈ 0.801 µM)
CC[C@H]1OC(=O)[C@H](C)C(=O)[C@H](C)[C@@H](OC2O[C@H](C)C[C@H](N(C)C)[C@H]2O)[C@](C)(OC)C[C@@H](C)C(=O)[C@H](C)[C@H]2N(CCCCn3cnc(-c4cccnc4)c3)C(=O)O[C@]12C (some centres not stated) | 10 µg/mL (≈ 12.3 µM) | 0.02 µg/mL (≈ 0.0246 µM) | 0.04 µg/mL (≈ 0.0493 µM) | 0.02 µg/mL (≈ 0.0246 µM) | 1.2 µg/mL (≈ 1.48 µM) | 0.02 µg/mL (≈ 0.0246 µM) | 0.02 µg/mL (≈ 0.0246 µM)
CC[C@H]1OC(=O)[C@H](C)[C@@H](O[C@H]2C[C@@](C)(OC)[C@@H](O)[C@H](C)O2)[C@H](C)[C@@H](O[C@@H]2O[C@H](C)C[C@H](N(C)C)[C@H]2O)[C@](C)(OC)C[C@@H](C)C2=N[C@H](C)[C@@H](O2)[C@]1(C)O | 40 µg/mL (≈ 53.7 µM) | 40 µg/mL (≈ 53.7 µM) | 20 µg/mL (≈ 26.8 µM) | 40 µg/mL (≈ 53.7 µM) | 10 µg/mL (≈ 13.4 µM) | 40 µg/mL (≈ 53.7 µM) | 40 µg/mL (≈ 53.7 µM)
CC[C@H]1OC(=O)[C@H](C)[C@@H](O[C@H]2C[C@@](C)(OC)[C@@H](O)[C@H](C)O2)[C@H](C)[C@@H](OC2O[C@H](C)C[C@H](N(C)C)[C@H]2O)[C@](C)(OC)C[C@@H](C)C(=O)N[C@H](C)[C@@H](O)[C@]1(C)O (some centres not stated) | 40 µg/mL (≈ 52.4 µM) | 10 µg/mL (≈ 13.1 µM) | 1.2 µg/mL (≈ 1.57 µM) | 40 µg/mL (≈ 52.4 µM) | 2.5 µg/mL (≈ 3.28 µM) | 1.2 µg/mL (≈ 1.57 µM) | 0.6 µg/mL (≈ 0.786 µM)

Now from value to compound:

MIC (Escherichia coli) | MIC (Streptococcus pneumoniae [1]) | MIC (Staphylococcus aureus) | MIC (Streptococcus pneumoniae [2]) | MIC (Haemophilus influenzae) | MIC (Streptococcus pneumoniae [3]) | MIC (Streptococcus pyogenes) | SMILES
40 µg/mL (≈ 66.4 µM) | 40 µg/mL (≈ 66.4 µM) | 40 µg/mL (≈ 66.4 µM) | 40 µg/mL (≈ 66.4 µM) | 40 µg/mL (≈ 66.4 µM) | 40 µg/mL (≈ 66.4 µM) | 40 µg/mL (≈ 66.4 µM) | CC[C@H]1OC(=O)[C@H](C)C(=O)[C@H](C)[C@@H](O[C@@H]2O[C@H](C)C[C@H](N(C)C)[C@H]2O)[C@](C)(OC)C[C@@H](C)CN(C)[C@H](C)[C@@H](O)[C@]1(C)O
20 µg/mL (≈ 26.2 µM) | > 40 µg/mL | 1.2 µg/mL (≈ 1.57 µM) | > 40 µg/mL | 2.5 µg/mL (≈ 3.28 µM) | 0.15 µg/mL (≈ 0.197 µM) | 0.15 µg/mL (≈ 0.197 µM) | CC[C@H]1OC(=O)[C@H](C)[C@@H](O[C@H]2C[C@@](C)(OC)[C@@H](O)[C@H](C)O2)[C@H](C)[C@@H](O[C@@H]2O[C@H](C)C[C@H](N(C)C)[C@H]2O)[C@](C)(OC)C[C@@H](C)CN(C)[C@H](C)[C@@H](O)[C@]1(C)O
